Measured values: patent publication US10913736B2 (UNIVERSITY OF WASHINGTON, priority 2014, dated 2021)
Where “and” joins values, the source holds several entries; their conditions need not be identical. Equal entries are not always repeated. Where two headings read alike, the source gives them in different places.

Legend:
MetRS (T. brucei) = MetRS (T. brucei) (Trypanosoma brucei brucei, UniProt Q38C91); assay: MetRS (T. brucei) ATP depletion assay using Kinase-Glo; assay type: biochemical
T. brucei = assay: Growth inhibition assay of T. brucei cell cultures (Alamar Blue, 48 h); assay type: cell-based
MetRS (S. aureus) = MetRS (S. aureus) (Staphylococcus aureus, UniProt Q5HII6); assay: biochemical; details: ATP depletion, Kinase-Glo; read-out: H) MetRS (S. aureus) ATP depletion assay using Kinase-Glo with modified cpd dilution method, IC50
[1] = Trypanosoma brucei; read-out: B) T. brucei EC50

Chain of MetRS (T. brucei) (Q38C91 entry or part of it): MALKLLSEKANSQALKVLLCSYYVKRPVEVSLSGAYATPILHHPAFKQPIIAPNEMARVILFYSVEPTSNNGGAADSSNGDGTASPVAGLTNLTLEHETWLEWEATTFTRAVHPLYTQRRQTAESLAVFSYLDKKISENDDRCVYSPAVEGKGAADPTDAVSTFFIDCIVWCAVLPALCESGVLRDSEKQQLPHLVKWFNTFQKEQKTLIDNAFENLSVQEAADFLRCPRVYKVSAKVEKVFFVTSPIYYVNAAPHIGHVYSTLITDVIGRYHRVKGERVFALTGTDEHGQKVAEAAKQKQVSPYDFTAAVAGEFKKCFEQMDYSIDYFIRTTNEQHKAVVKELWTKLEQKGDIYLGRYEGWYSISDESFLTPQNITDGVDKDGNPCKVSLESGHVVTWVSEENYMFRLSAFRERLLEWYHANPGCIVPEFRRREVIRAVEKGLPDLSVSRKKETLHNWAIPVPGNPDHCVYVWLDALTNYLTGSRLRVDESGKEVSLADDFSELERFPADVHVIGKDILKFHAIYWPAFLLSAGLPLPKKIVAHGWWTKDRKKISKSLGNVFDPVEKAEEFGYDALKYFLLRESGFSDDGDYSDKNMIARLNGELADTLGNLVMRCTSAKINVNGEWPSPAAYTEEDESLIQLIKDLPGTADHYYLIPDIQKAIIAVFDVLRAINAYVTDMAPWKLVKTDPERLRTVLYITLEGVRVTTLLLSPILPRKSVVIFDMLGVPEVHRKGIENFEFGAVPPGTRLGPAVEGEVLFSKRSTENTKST
Chain of MetRS (S. aureus) (Q5HII6 whole entry): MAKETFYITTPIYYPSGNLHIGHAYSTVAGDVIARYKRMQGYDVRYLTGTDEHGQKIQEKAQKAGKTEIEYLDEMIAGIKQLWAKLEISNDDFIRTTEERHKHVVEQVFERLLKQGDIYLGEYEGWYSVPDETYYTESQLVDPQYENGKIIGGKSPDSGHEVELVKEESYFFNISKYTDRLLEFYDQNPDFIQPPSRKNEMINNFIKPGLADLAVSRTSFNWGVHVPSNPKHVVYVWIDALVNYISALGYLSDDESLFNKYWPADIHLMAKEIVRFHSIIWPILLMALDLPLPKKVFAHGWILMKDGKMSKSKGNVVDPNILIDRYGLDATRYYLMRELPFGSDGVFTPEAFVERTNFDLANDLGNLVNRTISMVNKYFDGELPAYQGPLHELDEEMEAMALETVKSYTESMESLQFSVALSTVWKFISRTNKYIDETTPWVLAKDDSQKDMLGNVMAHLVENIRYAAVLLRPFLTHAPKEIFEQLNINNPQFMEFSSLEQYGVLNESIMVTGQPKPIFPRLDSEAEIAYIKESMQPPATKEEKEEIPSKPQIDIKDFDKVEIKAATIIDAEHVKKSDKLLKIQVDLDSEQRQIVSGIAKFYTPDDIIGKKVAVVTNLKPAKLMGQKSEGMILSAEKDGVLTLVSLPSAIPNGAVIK

CCC(=O)N(CCN(C)c1nc2nc(Cl)ccc2[nH]1)Cc1cc(Cl)cc(Cl)c1 [Compound 1942, N-(3,5-dichlorobenzyl)-N-(2-(5-chloro-N-methyl-1H-imidazo[4,5-b]pyridin-2-ylamino)ethyl)propionamide]
IC50 (MetRS (T. brucei)): 20 nM
EC50 (T. brucei; [1]): 145 nM
IC50 (MetRS (S. aureus)): 104 nM

CC(=O)N(CCN(C)c1nc2nc(F)ccc2[nH]1)Cc1cc(Cl)cc(Cl)c1 [Compound 1914, N-[(3,5-dichlorophenyl)methyl]-N-[2-({5-fluoro-1H-imidazo[4,5-b]pyridin-2-yl}(methyl)amino)ethyl]acetamide]
IC50 (MetRS (T. brucei)): 18 nM
EC50 (T. brucei; [1]): 252 nM
IC50 (MetRS (S. aureus)): 303 nM

COc1ccc(Oc2ccnc(NCc3nc4ccc(F)nc4[nH]3)c2)c(Cl)c1 [Compound 1960, 4-(2-chloro-4-methoxyphenoxy)-N-({5-fluoro-3H-imidazo[4,5-b]pyridin-2-yl}methyl)pyridin-2-amine]
IC50 (MetRS (T. brucei)): 21 nM
IC50 (MetRS (S. aureus)): 12 nM

Clc1ccc2[nH]c(N3CCC[C@H](NCc4cc(Br)cc(Br)c4)C3)nc2n1 [Compound 1908, (S)-1-(5-chloro-1H-imidazo[4,5-b]pyridin-2-yl)-N-(3,5-dibromobenzyl) piperidin-3-amine]
IC50 (MetRS (T. brucei)): 15 nM
EC50 (T. brucei; [1]): 85.2 nM
IC50 (MetRS (S. aureus)): 155 nM

CN(CCN(Cc1cc(Cl)cc(Cl)c1)C(N)=O)c1nc2ccc(Cl)nc2[nH]1 [Compound 1972, 1-(3,5-dichlorobenzyl)-1-(2-(5-chloro-N-methyl-1H-imidazo[4,5-b]pyridin-2-ylamino)ethyl)urea]
IC50 (MetRS (T. brucei)): 27 nM
IC50 (MetRS (S. aureus)): 140 nM

COc1ccc(Oc2cc(NCc3nc4ccccc4[nH]3)ccn2)c(Cl)c1 [Compound 1950, N-(1H-1,3-benzodiazol-2-ylmethyl)-2-(2-chloro-4-methoxyphenoxy)pyridin-4-amine]
IC50 (MetRS (T. brucei)): 50 nM
IC50 (MetRS (S. aureus)): 797 nM

CN(CCN(Cc1cc(Cl)cc(Cl)c1)C(=O)CN)c1nc2nc(Cl)ccc2[nH]1 [Compound 1957, 2-amino-N-[2-({5-chloro-1H-imidazo[4,5-b]pyridin-2-yl}(methyl)amino)ethyl]-N-[(3,5-dichlorophenyl)methyl]acetamide]
IC50 (MetRS (T. brucei)): 11 nM
IC50 (MetRS (S. aureus)): 424 nM

O=C(Cc1cc(Cl)cc(Cl)c1)NCc1nc2ccc(Br)cc2[nH]1 [Compound 1873, N-[(6-bromo-1H-1,3-benzodiazol-2-yl)methyl]-2-(3,5-dichlorophenyl)acetamide]
IC50 (MetRS (T. brucei)): 98 nM
EC50 (T. brucei; [1]): 5500 nM

Clc1cc(Cl)cc(CN[C@@H]2CCCN(c3nc4nc(Cl)ccc4[nH]3)C2)c1 [Compound 1855, (R)-1-(5-chloro-1H-imidazo[4,5-b]pyridin-2-yl)-N-(3,5-dichlorobenzyl) piperidin-3-amine]
IC50 (MetRS (T. brucei)): 192 nM
EC50 (T. brucei; [1]): 999 nM

O=C(Cc1cc(Cl)cc(Cl)c1)N1CCOC(c2nc3nc(Cl)ccc3[nH]2)C1 (centres unmarked) [Compound 1790, 1-(2-(5-chloro-1H-imidazo[4,5-b]pyridin-2-yl)morpholino)-2-(3,5-dichlorophenyl)ethanone]
IC50 (MetRS (T. brucei)): 105 nM
EC50 (T. brucei; [1]): 2700 nM

CC(=O)N(Cc1cc(Cl)cc(Cl)c1)C1CCCC(c2nc3ccccc3[nH]2)C1 (centres unmarked) [Compound 1816, N-(3-(1H-benzo[d]imidazol-2-yl)cyclohexyl)-N-(3,5-dichlorobenzyl) acetamide]
IC50 (MetRS (T. brucei)): > 10000 nM
EC50 (T. brucei; [1]): 8790 nM

O=C(Cc1ccc(Cl)cc1Cl)NCc1nc2ncc(Cl)cc2[nH]1 [Compound 1878, N-({6-chloro-1H-imidazo[4,5-b]pyridin-2-yl}methyl)-2-(2,4-dichlorophenyl)acetamide]
IC50 (MetRS (T. brucei)): 195 nM
EC50 (T. brucei; [1]): 7520 nM

O=C(Cc1nc2ccc(Cl)cc2[nH]1)NCc1cc(Cl)cc(Cl)c1 [Compound 1804, N-(3,5-dichlorobenzyl)-2-(6-chloro-1H-benzo[d]imidazol-2-yl)acetamide]
IC50 (MetRS (T. brucei)): 389 nM
EC50 (T. brucei; [1]): 15000 nM

O=C(NCc1nc2ccccc2[nH]1)C(=O)NCc1ccc(Cl)cc1Cl [Compound 1802, N1-((1H-benzo[d]imidazol-2-yl)methyl)-N2-(2,4-dichlorobenzyl)oxalamide]
IC50 (MetRS (T. brucei)): 4290 nM
EC50 (T. brucei; [1]): > 20000 nM

Clc1cc(Cl)cc(CN2CCC[C@H](c3nc4nc(Cl)ccc4[nH]3)C2)c1 [Compound 1868, (S)-5-chloro-2-(1-(3,5-dichlorobenzyl)piperidin-3-yl)-1H-imidazo[4,5-b]pyridine]
IC50 (MetRS (T. brucei)): 77 nM
EC50 (T. brucei; [1]): 1080 nM

Clc1cc(Cl)cc(CN[C@@H]2CCC[C@H](c3nc4nc(Cl)ccc4[nH]3)C2)c1 [Compound 1854, (1R,3S)-3-(5-chloro-1H-imidazo[4,5-b]pyridin-2-yl)-N-(3,5-dichlorobenzyl)cyclohexanamine]
IC50 (MetRS (T. brucei)): 106 nM
EC50 (T. brucei; [1]): 580 nM

O=C(CSc1nc2ccc(Cl)nc2[nH]1)NCc1cc(Cl)cc(Cl)c1 [Compound 1951, 2-({5-chloro-3H-imidazo[4,5-b]pyridin-2-yl}sulfanyl)-N-[(3,5-dichlorophenyl)methyl]acetamide]
IC50 (MetRS (T. brucei)): 288 nM
EC50 (T. brucei; [1]): 664 nM

C[C@H](Cc1nc2ccc(Cl)cc2[nH]1)NCc1cc(Cl)cc(Cl)c1 [Compound 1806, [(2R)-1-(6-chloro-1H-1,3-benzodiazol-2-yl)propan-2-yl][(3,5-dichlorophenyl)methyl]amine]
IC50 (MetRS (T. brucei)): 7630 nM and 9880 nM
EC50 (T. brucei; [1]): 3330 nM

N[C@@H](CC(=O)NCc1nc2ccccc2[nH]1)Cc1ccc(F)cc1 [Compound 1703, (3R)-3-amino-N-(1H-1,3-benzodiazol-2-ylmethyl)-4-(4-fluorophenyl)butanamide]
IC50 (MetRS (T. brucei)): 12100 nM
EC50 (T. brucei; [1]): > 10000 nM

O=C(CCc1nc2nc(Cl)ccc2[nH]1)NCc1cc(Cl)cc(Cl)c1 [Compound 1944, 3-{5-chloro-1H-imidazo[4,5-b]pyridin-2-yl}-N-[(3,5-dichlorophenyl)methyl]propanamide]
IC50 (MetRS (T. brucei)): 535 nM
EC50 (T. brucei; [1]): 11700 nM

COc1ccc(Oc2cccc(NCc3nc4ccccc4[nH]3)c2)c(Cl)c1 [Compound 1941, N-(1H-1,3-benzodiazol-2-ylmethyl)-3-(2-chloro-4-methoxyphenoxy)aniline]
IC50 (MetRS (T. brucei)): 273 nM
EC50 (T. brucei; [1]): 3130 nM

CC(C)(CNCc1cc(Cl)cc(Cl)c1)CNc1nc2cccnc2[nH]1 [Compound 1641, N1-(3,5-dichlorobenzyl)-N3-(1H-imidazo[4,5-b]pyridin-2-yl)-2,2-dimethylpropane-1,3-diamine]
IC50 (MetRS (T. brucei)): < 49 nM and 138 nM
EC50 (T. brucei; [1]): 7650 nM
EC50 (T. brucei; read-out: B) T. brucei EC50): 8350 nM

CC(Cc1nc2c(Cl)cc(Cl)cc2[nH]1)NCc1cc(Cl)cc(Cl)c1 (centres unmarked) [Compound 1823, [1-(4,6-dichloro-1H-1,3-benzodiazol-2-yl)propan-2-yl][(3,5-dichlorophenyl)methyl]amine]
IC50 (MetRS (T. brucei)): 2290 nM
EC50 (T. brucei; [1]): 4560 nM

Clc1ccc(CN[C@H]2CCN(c3nc4ccc(Cl)nc4[nH]3)C2)c(Cl)c1 [Compound 1846, (3S)-1-{5-chloro-3H-imidazo[4,5-b]pyridin-2-yl}-N-[(2,4-dichlorophenyl)methyl]pyrrolidin-3-amine]
IC50 (MetRS (T. brucei)): 1640 nM
EC50 (T. brucei; [1]): 11000 nM

Clc1cc(Cl)cc(CNC2CCCC(c3nc4ccccc4[nH]3)C2)c1 (centres unmarked) [Compound 1815, 3-(1H-benzo[d]imidazol-2-yl)-N-(3,5-dichlorobenzyl)cyclohexanamine]
IC50 (MetRS (T. brucei)): > 10000 nM
EC50 (T. brucei; [1]): 4090 nM

O=C1N[C@@H](Cc2ccc(Cl)cc2Cl)CN1Cc1nc2ccccc2[nH]1 [Compound 1792, 1-(1H-Benzoimidazol-2-ylmethyl)-4-(2,4-dichloro-benzyl)-imidazolidin-2-one]
IC50 (MetRS (T. brucei)): 150 nM
EC50 (T. brucei; [1]): 2680 nM
